Reference: US8852569B2, “Prevention and treatment of itch with cysteine protease inhibition” (The General Hospital Corporation, priority 2008, dated 2014)

Experiments:
PAR2 = test: PAR activation by cytoplasmic calcium release in transfected HeLa cells (Fura-2 ratiometric imaging), PAR2; format: cell-based, human; conditions: FIG. 3C; cathepsin S 2 μM, E64 10 μM, fura-2 single cell imaging
Description: (§1) The responses to PAR 2 and 4 were blocked by the protease inhibitor E64 (10 μM) as a control). Other controls included vector alone and vector encoding the PAR1 receptor. Cathepsin S was added as indicated. The averages from at least three separate experiments were then combined +/−SD.
(§2) Salmon sperm (SS) DNA is used as control. The averages from at least three separate experiments were then combined +/−SD.
(§3) PAR activation observed by cytoplasmic calcium release—The four human PAR cDNAs were obtained from commercial sources and cloned into the pcDNA3.1(−) vector (INVITROGEN™ Inc.). HeLa cells were transfected with 10 μg of vector cDNA using Lipofectamine 2000 (INVITROGEN™ Inc.) and cultured for two days in 96-well glass bottom plates at 30,000 cells/well. Cells were loaded with Fura-2 as follows. The medium was aspirated and replaced with 100 μl of complete DMEM containing 2 μM Fura-2 (INVITROGEN™ Inc.) and kept at room temperature in the dark for 1 hr. The medium was again aspirated and each well received 90 μl of HEPES buffered saline (20 mM HEPES, 115 mM NaCl, 5.4 mM KCl, 2 mM CaCl2, 0.8 mM MgCl2, 13.8 mM glucose, pH 7.4). Plates were observed using a Zeiss Axiovert 200M microscope equipped with a filter wheel for monitoring excitation at 340 and 380 nm. Axiovision software, version 4.6 was used to analyze ratiometric calcium imaging of the cells. […]

PAR4 = test: PAR activation by cytoplasmic calcium release in transfected HeLa cells (Fura-2 ratiometric imaging), PAR4; format: cell-based, human; conditions: FIG. 3C; cathepsin S 2 μM, E64 10 μM, fura-2 single cell imaging
Description: as §1, §2, §3

human cathepsin K = target: T1, human cathepsin K (Homo sapiens, UniProt P43235); test: Chromogenic substrate assay, inhibition of cathepsin K by E64; format: biochemical; conditions: FIG. 1; protease 0.84 μM, E64 2 μM
T1 construct: made in house; host or cells: E. coli
T1 sequence (P43235 115-329): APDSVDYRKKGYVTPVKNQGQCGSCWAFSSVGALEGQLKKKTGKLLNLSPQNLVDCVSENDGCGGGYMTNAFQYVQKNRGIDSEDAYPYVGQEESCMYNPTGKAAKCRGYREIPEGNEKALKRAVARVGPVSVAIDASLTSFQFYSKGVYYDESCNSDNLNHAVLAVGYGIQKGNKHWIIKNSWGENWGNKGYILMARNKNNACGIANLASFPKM
Description: (§4) The concentrations of all the three proteases are at 0.84 μM and that of E64, a non-selective irreversible inhibitor of cysteine proteases, is at 2 μM […].
(§5) Papain served as a positive control cysteine protease. The cathepsin S and K were further evaluated for their capacity to activate PAR receptors as noted below.

human cathepsin S = target: T2, human cathepsin S (Homo sapiens, UniProt P25774); test: Chromogenic substrate assay, inhibition of cathepsin S by E64; format: biochemical; conditions: FIG. 1; protease 0.84 μM, E64 2 μM
T2 construct: made in house; host or cells: E. coli
T2 sequence (P25774 115-331): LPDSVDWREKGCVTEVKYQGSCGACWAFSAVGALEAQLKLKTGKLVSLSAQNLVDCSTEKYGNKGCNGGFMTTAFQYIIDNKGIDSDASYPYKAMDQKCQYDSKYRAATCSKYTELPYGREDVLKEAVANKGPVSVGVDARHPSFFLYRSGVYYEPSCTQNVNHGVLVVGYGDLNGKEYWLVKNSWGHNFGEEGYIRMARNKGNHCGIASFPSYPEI
Description: as §4, §5

protease activity of cathepsin K (cleavage of Z-Phe-Arg-pNA) in presence of E64 (human cathepsin K): eliminated
protease activity of cathepsin S (cleavage of Z-Phe-Arg-pNA) in presence of E64 (human cathepsin S): eliminated
Structure (SMILES): CC(C)C[C@H](NC(=O)[C@H]1O[C@@H]1C(=O)O)C(=O)NCCCCN=C(N)N (relative stereo) [E64, trans-epoxysuccinyl-L-leucylamide-(4-guanidino) butane, reference compound]
cathepsin S induced PAR2 response in presence of E64 (PAR2): blocked
cathepsin S induced PAR4 response in presence of E64 (PAR4): blocked
